Source: publication PMC7417534, “Cytochrome P450 inhibition potential and initial genotoxic evaluation of 14-O-[(4,6-diaminopyrimidine-2-yl)thioacetyl] mutilin” (Scientific Reports, 2020)
Where two headings read alike, the source gives them in different places.

Columns and labels:
CYP2E1 [1] = target: T1, CYP2E1 (Rattus norvegicus, UniProt P05182); assay: Cocktail CYP inhibition in rat liver microsomes, CYP2E1 (chlorzoxazone); type: in vitro ADME; conditions: cocktail method, read-out: IC50 values, CYP2E1 in RLMs
T1 construct: containing 100 μL RLMs or HLMs; tissue Research Institute for Liver Diseases (Shanghai) Co., Ltd; host or cells: male SD rat liver microsomes
Procedure: (§1) We used the cocktail method to study the inhibition activities of DPTM against CYP enzymes in RLMs and HLMs with slight modification. DPTM (250 μmol) was dissolved in 1.25 mL methanol to a solution and then diluted with methanol and water to 2, 10, 20, 100, 200, 400, 1,000 and 2000 μM, respectively. The obtained serial dilutions (10 μL) were added to the incubation mixtures (200 μL total volume), containing 100 μL RLMs or HLMs (final concentration was 5 μg/μL, respectively), 10 μL glucose-6-phosphate (final concentration was 1 mM), 10 μL glucose-6-phosphate dehydrogenase (final concentration was 0.1 U/L), 20 μL potassium phosphate buffer (final concentration was 0.01 M) and 20 μL MgCl2 (final concentration was 2 mM), to give the final concentrations were 0.1, 0.5, 1, 5 10, 20, 50, and 100 μM, respectively. For the groups that in the absence of DPTM, 10 μL methanol (1%) replaced the DPTM and was added to the incubation mixtures. […] The final concentration of methanol in all the incubation mixtures, including the blank group, was […]. […] The determined metabolic substrates were used for calculating the relative enzyme activity (Erel) by the following formula: Erel (%) = Ci(n)/Ci(0) × 100%, in which Ci(n) was the determined metabolic substrates in the presence of varying concentrations of DPTM and Ci(0) was the determined metabolic substrates in the absence of DPTM. […]

CYP2C11 = target: T2, CYP2C11 (Rattus norvegicus, UniProt P08683); assay: Cocktail CYP inhibition in rat liver microsomes, CYP2C11 (tolbutamide); type: in vitro ADME; conditions: cocktail method, read-out: IC50 values, CYP2C11 in RLMs
T2 construct: containing 100 μL RLMs or HLMs; tissue Research Institute for Liver Diseases (Shanghai) Co., Ltd; host or cells: male SD rat liver microsomes
Procedure: as §1

CYP3A = assay: Cocktail CYP inhibition in rat liver microsomes, CYP3A (dapsone); type: in vitro ADME; conditions: probe dapsone (55 μM), cocktail method, read-out: IC50 values, CYP3A in RLMs
Procedure: as §1

CYP2D6 = target: T3, CYP2D6 (Homo sapiens, UniProt P10635); assay: Cocktail CYP inhibition in human liver microsomes, CYP2D6 (metoprolol); type: in vitro ADME; conditions: cocktail method, read-out: IC50 values, CYP2D6 in HLMs
T3 construct: containing 100 μL RLMs or HLMs; tissue Research Institute for Liver Diseases (Shanghai) Co., Ltd; host or cells: pooled human liver microsomes
Procedure: as §1

CYP2E1 [2] = target: T4, CYP2E1 (Homo sapiens, UniProt P05181); assay: Cocktail CYP inhibition in human liver microsomes, CYP2E1 (chlorzoxazone); type: in vitro ADME; conditions: cocktail method, read-out: IC50 values, CYP2E1 in HLMs
T4 construct: containing 100 μL RLMs or HLMs; tissue Research Institute for Liver Diseases (Shanghai) Co., Ltd; host or cells: pooled human liver microsomes
Procedure: as §1

PXR mRNA = PXR mRNA expression in Hep G2 cells (real-time PCR); type: cell-based, human; conditions: 4 and 12 h, three doses
Procedure: The logarithmic growth phase Hep G2 cells were seeded into 12-well plastic plates at a density of […]. After incubation at 37 °C under 5% CO2 for 24 h, the media were then replaced with 1 mL of serial dilutions of the DPTM (4.98, 0.16 and 0.08 mM) in fresh media. When cells were incubated for 2, 4 and 12 h at 37 °C under 5% CO2, the RNA was isolated using the Trizol reagent according to the manufacturer’s protocol. Total RNA (5 μL) was transcribed into cDNA by using the PrimeScript RT reagent Kit (Perfect Real Time). The obtained cDNA (5 μL) was added for 45 cycles of PCR amplification to detect the mRNA expression (the primers and sequences used herein were given in Table 3) using the ABI Villa TM7Dx real-time PCR system (Gaithersburg, USA). Glyceraldehyde-3-phosphate dehydrogenase (GAPDH) was used as reference gene. All reactions were performed in a final volume of 20 μL (10 μL of 2 × SYBR Green Real-time PCR Master Mix, 2 μL of cDNA and 2 μL of the primers and 6 μL DEPC water) and executed in triplicate.

S. typhimurium TA97 = assay: Ames test, strain TA97; type: cell-based, Salmonella typhimurium; conditions: − S9
Description: (§2) S. typhimurium strains TA97, TA98, TA100, TA102 and TA1535 were stored and maintained as provided in the standard protocol. Each of the strains was checked for their genetic integrity prior to the experiment, and tested for biotin dependence, histidine dependence, biotin and histidine dependence, rfa marker (crystal violet) and presence of the plasmid pKM101 (ampicillin resistance) or pAQ1 (tetracycline resistance). Different strains were used to identify different types of mutations.
(§3) The test was carried out at five different concentrations of DPTM. […] Then 1 mL solution was diluted with distilled water by two fold. […] The negative control used in this experiment was 1 mL DMSO which was directly incorporated into 9 mL melted top agar.
(§4) The Ames test of DPTM was conducted as described in the literatures[42],[43] with some modifications. Briefly, 1 mL of strain was inoculated into 5 mL of nutrient broth, followed by incubating overnight at 37 °C. The mixture comprised respective strains, drug, negative and positive controls with the S9 for testing in the presence of metabolic activation system. For testing without S9, 1 × phosphate buffer saline (PBS, pH 7.4) replaced the S9 mix. The obtained mixtures were added into the tube, mixed well and incubated at 37 °C for 20 min. Then, the top agar was melted and 2 mL of this melted top agar was added to each tube and gently mixed. […] The results were expressed as the number of revertant colonies per plate. The experiments were performed in triplicate.

S. typhimurium TA102 = conditions: − S9
Description: as §2
The test was carried out at five different concentrations of DPTM. […] Then 1 mL solution was diluted with distilled water by two fold.
as §4

S. typhimurium TA100 = conditions: − S9
Description: as §2, §3, §4

S. typhimurium TA1535 = conditions: − S9
Description: as §2, §3, §4

T4 sequence (P05181 whole entry): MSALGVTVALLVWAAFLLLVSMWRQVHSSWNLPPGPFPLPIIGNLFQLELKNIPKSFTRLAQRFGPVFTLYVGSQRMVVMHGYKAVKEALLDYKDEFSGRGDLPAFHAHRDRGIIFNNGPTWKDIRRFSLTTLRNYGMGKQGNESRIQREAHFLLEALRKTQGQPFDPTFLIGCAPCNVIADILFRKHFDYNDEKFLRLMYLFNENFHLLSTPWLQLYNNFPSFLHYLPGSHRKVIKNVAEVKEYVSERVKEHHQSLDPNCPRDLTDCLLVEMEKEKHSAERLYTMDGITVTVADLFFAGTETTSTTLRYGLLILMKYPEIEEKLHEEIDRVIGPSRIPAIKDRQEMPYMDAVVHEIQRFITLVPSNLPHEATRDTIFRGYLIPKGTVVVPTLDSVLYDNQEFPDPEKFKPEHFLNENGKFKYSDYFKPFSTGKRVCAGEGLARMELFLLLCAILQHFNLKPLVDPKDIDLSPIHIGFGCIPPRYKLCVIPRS
T3 sequence (P10635 whole entry): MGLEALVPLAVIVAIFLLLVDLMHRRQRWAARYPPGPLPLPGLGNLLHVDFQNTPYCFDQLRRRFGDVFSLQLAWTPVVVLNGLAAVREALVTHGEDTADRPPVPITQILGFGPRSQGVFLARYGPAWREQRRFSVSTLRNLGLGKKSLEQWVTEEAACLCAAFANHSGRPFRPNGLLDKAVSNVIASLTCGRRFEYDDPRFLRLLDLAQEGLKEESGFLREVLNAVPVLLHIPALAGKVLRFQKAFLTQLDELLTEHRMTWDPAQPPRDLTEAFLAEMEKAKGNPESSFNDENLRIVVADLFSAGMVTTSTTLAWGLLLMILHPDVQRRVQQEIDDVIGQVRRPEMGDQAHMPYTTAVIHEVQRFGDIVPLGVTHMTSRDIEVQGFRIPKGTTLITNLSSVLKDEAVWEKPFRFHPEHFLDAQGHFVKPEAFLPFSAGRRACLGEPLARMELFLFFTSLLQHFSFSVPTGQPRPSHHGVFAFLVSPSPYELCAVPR
T2 sequence (P08683 whole entry): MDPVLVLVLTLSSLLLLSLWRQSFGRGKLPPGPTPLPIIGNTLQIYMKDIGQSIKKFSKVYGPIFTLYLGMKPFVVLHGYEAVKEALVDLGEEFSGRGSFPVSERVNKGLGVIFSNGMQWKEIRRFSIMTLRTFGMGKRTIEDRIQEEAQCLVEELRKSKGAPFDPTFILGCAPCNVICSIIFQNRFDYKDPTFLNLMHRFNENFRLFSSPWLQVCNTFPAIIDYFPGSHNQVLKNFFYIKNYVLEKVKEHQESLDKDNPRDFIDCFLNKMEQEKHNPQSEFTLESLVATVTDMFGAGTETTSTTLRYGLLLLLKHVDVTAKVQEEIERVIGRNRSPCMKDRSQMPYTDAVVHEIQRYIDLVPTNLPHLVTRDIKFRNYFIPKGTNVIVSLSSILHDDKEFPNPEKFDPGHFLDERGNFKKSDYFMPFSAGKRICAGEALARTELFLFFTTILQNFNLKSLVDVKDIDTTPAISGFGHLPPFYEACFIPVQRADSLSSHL
T1 sequence (P05182 whole entry): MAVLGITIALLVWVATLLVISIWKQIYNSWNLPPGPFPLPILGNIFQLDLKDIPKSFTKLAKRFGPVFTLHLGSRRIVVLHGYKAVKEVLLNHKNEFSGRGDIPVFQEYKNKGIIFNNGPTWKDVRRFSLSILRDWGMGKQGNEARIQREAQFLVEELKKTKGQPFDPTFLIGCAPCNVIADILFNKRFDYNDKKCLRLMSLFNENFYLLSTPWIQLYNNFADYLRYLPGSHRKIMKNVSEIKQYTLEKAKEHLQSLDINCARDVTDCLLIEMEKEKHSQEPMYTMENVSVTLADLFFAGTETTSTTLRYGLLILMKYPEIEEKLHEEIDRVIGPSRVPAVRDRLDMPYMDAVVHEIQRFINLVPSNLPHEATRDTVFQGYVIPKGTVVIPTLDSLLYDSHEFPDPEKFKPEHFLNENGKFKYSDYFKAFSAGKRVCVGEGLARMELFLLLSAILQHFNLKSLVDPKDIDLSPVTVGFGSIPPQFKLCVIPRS

Compound: C=CC1(C)CC(OC(=O)CSc2nc(N)cc(N)n2)C2(C)C(C)CCC3(CCC(=O)C32)C(C)C1O (stereo not shown) [DPTM, 14-O-[(4,6-Diaminopyrimidine-2-yl)thioacetyl] mutilin]
- IC50 (CYP2E1 [1]): 61 ± 8 µM
- IC50 (CYP2C11): > 100 µM
- IC50 at 15 min (CYP3A): 10 ± 2 µM
- IC50 (CYP2D6): > 100 µM
- IC50 (CYP2E1 [2]): 67 ± 6 µM
- PXR mRNA expression versus control (PXR mRNA): significantly increased
- revertant colonies per plate, TA97 (S. typhimurium TA97; dose 0.50 μmol/plate): 165 ± 14 CFU
- revertant colonies per plate, TA97 (S. typhimurium TA97; dose 1.00 μmol/plate): 171 ± 8 CFU
- revertant colonies per plate, TA97 (S. typhimurium TA97; dose 1.99 μmol/plate): 174 ± 17 CFU
- revertant colonies per plate, TA97 (S. typhimurium TA97; dose 3.98 μmol/plate): 169 ± 14 CFU
- revertant colonies per plate, TA102 (S. typhimurium TA102; dose 0.25 μmol/plate): 256 ± 20 CFU
- revertant colonies per plate, TA102 (S. typhimurium TA102; dose 0.50 μmol/plate): 241 ± 10 CFU
- revertant colonies per plate, TA102 (S. typhimurium TA102; dose 1.00 μmol/plate): 260 ± 17 CFU
- revertant colonies per plate, TA102 (S. typhimurium TA102; dose 1.99 μmol/plate): 264 ± 15 CFU
- revertant colonies per plate, TA102 (S. typhimurium TA102; dose 3.98 μmol/plate): 268 ± 12 CFU
- revertant colonies per plate, TA100 (S. typhimurium TA100; dose 0.25 μmol/plate): 171 ± 15 CFU
- revertant colonies per plate, TA100 (S. typhimurium TA100; dose 0.50 μmol/plate): 162 ± 13 CFU
- revertant colonies per plate, TA100 (S. typhimurium TA100; dose 1.00 μmol/plate): 165 ± 14 CFU
- revertant colonies per plate, TA100 (S. typhimurium TA100; dose 1.99 μmol/plate): 170 ± 12 CFU
- revertant colonies per plate, TA100 (S. typhimurium TA100; dose 3.98 μmol/plate): 173 ± 15 CFU
- revertant colonies per plate, TA1535 (S. typhimurium TA1535; dose 0.25 μmol/plate): 22 ± 3 CFU
- revertant colonies per plate, TA1535 (S. typhimurium TA1535; dose 0.50 μmol/plate): 21 ± 5 CFU
- revertant colonies per plate, TA1535 (S. typhimurium TA1535; dose 1.00 μmol/plate): 26 ± 1 CFU
- revertant colonies per plate, TA1535 (S. typhimurium TA1535; dose 1.99 μmol/plate): 22 ± 3 CFU
- revertant colonies per plate, TA1535 (S. typhimurium TA1535; dose 3.98 μmol/plate): 22 ± 4 CFU
